In US20240217918A1 (APNIMED, INC. (DELAWARE), priority 2021, published 2024):

Assay: Gravimetric vapor sorption (GVS)
Assay type: physicochemical
Details: 25° C.
Description: GVS experiments were conducted on a Surface Measurement Systems DVS-Advantage. The experiments were performed at 25° C. The instrument was operated in step mode and the relative humidity was increased in 10% RH increments from 0% RH to 90% RH with an extra step at 75% RH, then decreased from 90% RH to 0% RH with an extra step at 75% RH. The mass equilibrium criterion was set at 0.005% change in mass over time (dm/dt). A minimum step time of 15 minutes and a maximum step time of 240 minutes were specified.

hygroscopicity (GVS, 0-90% RH): non-hygroscopic solid
moisture uptake (GVS, between 0-90% RH): 0.1%
change in crystal form after the GVS test (after GVS cycle 0-90-0% RH): No change in crystal form was observed
Compound: CCN(CC)CC#CCOC(=O)[C@](O)(c1ccccc1)C1CCCCC1 [Form A, (R)-oxybutynin D-malate]
